Data published in US8217029B2, “Oxazolidinone antibiotics” (Actelion Pharmaceuticals Ltd, priority 2007, dated 2012).
In brackets after ≈: the same amount, converted by molar mass.

system: S aureus A798; test: Minimal inhibitory concentration (MIC), microdilution method in cation-adjusted Mueller-Hinton Broth following NCCLS guidelines; assay type: cell-based; conditions: pH of test medium 7.2-7.3
Experimental: These assays have been performed following the description given in “Methods for dilution Antimicrobial Susceptibility Tests for Bacteria that Grow Aerobically, 4th ed.; Approved standard: NCCLS Document M7-A4; National Committee for Clinical Laboratory Standards Villanova, Pa., USA, 1997”. Minimal inhibitory concentrations (MICs; mg/l) were determined in cation-adjusted Mueller-Hinton Broth by a microdilution method following NCCLS guidelines (National Committee for Clinical Laboratory Standards. Methods for Dilution Antimicrobial Susceptibility). The pH of the test medium was 7.2-7.3. All Example compounds were tested against several Gram positive and Gram negative bacteria.

Point of comparison: `COc1ccc2nccc(N3CCN(C[C@H]4CN(c5ccc(C)c(F)c5)C(=O)O4)CC3)c2n1` [Example 38, (S)-3-(3-Fluoro-4-methyl-phenyl)-5-[4-(6-methoxy-[1,5]naphthyridin-4-yl)-piperazin-1-ylmethyl]-oxazolidin-2-one], MIC 0.063 µg/mL (≈ 0.14 µM). Against it:
- COc1ccc2nccc(N3CCN(C[C@@H]4CN(c5cccc(C(F)(F)F)c5)C(=O)O4)CC3)c2n1 [Example 16, (R)-5-[4-(6-Methoxy-[1,5]naphthyridin-4-yl)-piperazin-1-ylmethyl]-3-(3-trifluoromethyl-phenyl)-oxazolidin-2-one] — 4-fold higher, 0.25 µg/mL (≈ 0.513 µM)
- COc1ccc2nccc(N3CCN(C[C@@H]4CN(c5ccc(F)c(Cl)c5)C(=O)O4)CC3)c2n1 [Example 17, (R)-3-(3-Chloro-4-fluoro-phenyl)-5-[4-(6-methoxy-[1,5]naphthyridin-4-yl)-piperazin-1-ylmethyl]-oxazolidin-2-one] — lower, ≤ 0.031 µg/mL
- COc1ccc2nccc(N3CCN(C[C@@H]4CN(c5ccc(C)c(C(F)(F)F)c5)C(=O)O4)CC3)c2n1 [Example 18, (R)-5-[4-(6-Methoxy-[1,5]naphthyridin-4-yl)-piperazin-1-ylmethyl]-3-(4-methyl-3-trifluoromethyl-phenyl)-oxazolidin-2-one] — lower, ≤ 0.031 µg/mL
- COc1ccc2nccc(N3CCN(C[C@@H]4CN(c5ccc6ncsc6c5)C(=O)O4)CC3)c2n1 [Example 19, (R)-3-Benzothiazol-6-yl-5-[4-(6-methoxy-[1,5]naphthyridin-4-yl)-piperazin-1-ylmethyl]-oxazolidin-2-one] — lower, ≤ 0.031 µg/mL
- COc1ccc2nccc(N3CCN(C[C@@H]4CN(c5ccc(OC(F)F)cc5)C(=O)O4)CC3)c2n1 [Example 20, (R)-3-(4-Difluoromethoxy-phenyl)-5-[4-(6-methoxy-[1,5]naphthyridin-4-yl)-piperazin-1-ylmethyl]-oxazolidin-2-one] — lower, ≤ 0.031 µg/mL
- COc1ccc2nccc(N3CCN(C[C@@H]4CN(c5cccc(C#N)c5)C(=O)O4)CC3)c2n1 [Example 21, 3-{(R)-5-[4-(6-Methoxy-[1,5]naphthyridin-4-yl)-piperazin-1-ylmethyl]-2-oxo-oxazolidin-3-yl}-benzonitrile] — 4-fold higher, 0.25 µg/mL (≈ 0.562 µM)
- COc1ccc2nccc(N3CCN(C[C@@H]4CN(c5ccc6c(c5)NC(=O)CS6)C(=O)O4)CC3)c2n1 [Example 22, 6-{(R)-5-[4-(6-Methoxy-[1,5]naphthyridin-4-yl)-piperazin-1-ylmethyl]-2-oxo-oxazolidin-3-yl}-4H-benzo[1,4]thiazin-3-one] — lower, ≤ 0.031 µg/mL
- COc1ccc2nccc(N3CCN(C[C@@H]4CN(c5ccc(N6CCCC6)cc5)C(=O)O4)CC3)c2n1 [Example 23, (R)-5-[4-(6-Methoxy-[1,5]naphthyridin-4-yl)-piperazin-1-ylmethyl]-3-(4-pyrrolidin-1-yl-phenyl)-oxazolidin-2-one] — 32-fold higher, 2 µg/mL (≈ 4.09 µM)
- COc1cccc(N2C[C@@H](CN3CCN(c4ccnc5ccc(OC)nc45)CC3)OC2=O)c1 [Example 24, (R)-5-[4-(6-Methoxy-[1,5]naphthyridin-4-yl)-piperazin-1-ylmethyl]-3-(3-methoxy-phenyl)-oxazolidin-2-one] — 4-fold higher, 0.25 µg/mL (≈ 0.556 µM)
- CCCc1ccc(N2C[C@@H](CN3CCN(c4ccnc5ccc(OC)nc45)CC3)OC2=O)cc1 [Example 25, (R)-5-[4-(6-Methoxy-[1,5]naphthyridin-4-yl)-piperazin-1-ylmethyl]-3-(4-propyl-phenyl)-oxazolidin-2-one] — lower, ≤ 0.031 µg/mL
- CCc1ccc(N2C[C@@H](CN3CCN(c4ccnc5ccc(OC)nc45)CC3)OC2=O)cc1 [Example 26, (R)-3-(4-Ethyl-phenyl)-5-[4-(6-methoxy-[1,5]naphthyridin-4-yl)-piperazin-1-ylmethyl]-oxazolidin-2-one] — lower, ≤ 0.031 µg/mL
- COc1ccc2nccc(N3CCN(C[C@@H]4CN(c5ccc(C)c(C)c5)C(=O)O4)CC3)c2n1 [Example 27, (R)-3-(3,4-Dimethyl-phenyl)-5-[4-(6-methoxy-[1,5]naphthyridin-4-yl)-piperazin-1-ylmethyl]-oxazolidin-2-one] — lower, ≤ 0.031 µg/mL
- COc1ccc2nccc(N3CCN(C[C@@H]4CN(c5ccc(OC)c(Cl)c5)C(=O)O4)CC3)c2n1 [Example 28, (R)-3-(3-Chloro-4-methoxy-phenyl)-5-[4-(6-methoxy-[1,5]naphthyridin-4-yl)-piperazin-1-ylmethyl]-oxazolidin-2-one] — 16-fold higher, 1 µg/mL (≈ 2.07 µM)
- COc1ccc2nccc(N3CCN(C[C@@H]4CN(c5ccc(F)c(F)c5)C(=O)O4)CC3)c2n1 [Example 29, (R)-3-(3,4-Difluoro-phenyl)-5-[4-(6-methoxy-[1,5]naphthyridin-4-yl)-piperazin-1-ylmethyl]-oxazolidin-2-one] — lower, ≤ 0.031 µg/mL
- COc1ccc2nccc(N3CCN(C[C@@H]4CN(c5ccc(F)c(C)c5)C(=O)O4)CC3)c2n1 [Example 30, (R)-3-(4-Fluoro-3-methyl-phenyl)-5-[4-(6-methoxy-[1,5]naphthyridin-4-yl)-piperazin-1-ylmethyl]-oxazolidin-2-one] — 2-fold higher, 0.125 µg/mL (≈ 0.277 µM)
- COc1ccc2nccc(N3CCN(C[C@@H]4CN(c5ccc(Br)c(C)c5)C(=O)O4)CC3)c2n1 [Example 31, (R)-3-(4-Bromo-3-methyl-phenyl)-5-[4-(6-methoxy-[1,5]naphthyridin-4-yl)-piperazin-1-ylmethyl]-oxazolidin-2-one] — lower, ≤ 0.031 µg/mL
- COc1ccc2nccc(N3CCN(C[C@@H]4CN(c5ccc(C)c(Br)c5)C(=O)O4)CC3)c2n1 [Example 32, (R)-3-(3-Bromo-4-methyl-phenyl)-5-[4-(6-methoxy-[1,5]naphthyridin-4-yl)-piperazin-1-ylmethyl]-oxazolidin-2-one] — lower, ≤ 0.031 µg/mL
- COc1ccc2nccc(N3CCN(C[C@@H]4CN(c5ccc(OC)c(C(F)(F)F)c5)C(=O)O4)CC3)c2n1 [Example 33, (R)-5-[4-(6-Methoxy-[1,5]naphthyridin-4-yl)-piperazin-1-ylmethyl]-3-(4-methoxy-3-trifluoromethyl-phenyl)-oxazolidin-2-one] — 63-fold higher, 4 µg/mL (≈ 7.73 µM)
- COc1ccc2nccc(N3CCN(C[C@@H]4CN(c5cccc(N(C)C)c5)C(=O)O4)CC3)c2n1 [Example 34, (R)-3-(3-Dimethylamino-phenyl)-5-[4-(6-methoxy-[1,5]naphthyridin-4-yl)-piperazin-1-ylmethyl]-oxazolidin-2-one] — 2-fold higher, 0.125 µg/mL (≈ 0.27 µM)
- COc1ccc2nccc(N3CCN(C[C@@H]4CN(c5ccc6c(c5)OCO6)C(=O)O4)CC3)c2n1 [Example 35, (R)-3-Benzo[1,3]dioxol-5-yl-5-[4-(6-methoxy-[1,5]naphthyridin-4-yl)-piperazin-1-ylmethyl]-oxazolidin-2-one] — lower, ≤ 0.031 µg/mL
- COc1ccc2nccc(N3CCN(C[C@@H]4CN(c5ccc(C)c(F)c5)C(=O)O4)CC3)c2n1 [Example 36, (R)-3-(3-Fluoro-4-methyl-phenyl)-5-[4-(6-methoxy-[1,5]naphthyridin-4-yl)-piperazin-1-ylmethyl]-oxazolidin-2-one] — lower, ≤ 0.031 µg/mL
- COc1ccc2nccc(N3CCN(C[C@H]4CN(c5ccc6c(c5)OCCO6)C(=O)O4)CC3)c2n1 [Example 37, (S)-3-(2,3-Dihydro-benzo[1,4]dioxin-6-yl)-5-[4-(6-methoxy-[1,5]naphthyridin-4-yl)-piperazin-1-ylmethyl]-oxazolidin-2-one] — the same, 0.063 µg/mL (≈ 0.132 µM)
- COc1ccc2nccc(N3CCN(C[C@H]4CN(c5ccc6c(c5)NC(=O)CS6)C(=O)O4)CC3)c2n1 [Example 39, 6-{(S)-5-[4-(6-Methoxy-[1,5]naphthyridin-4-yl)-piperazin-1-ylmethyl]-2-oxo-oxazolidin-3-yl}-4H-benzo[1,4]thiazin-3-one] — lower, ≤ 0.031 µg/mL
- COc1ccc2nccc(N3CCN(C[C@H]4CN(c5cccc(F)c5)C(=O)O4)CC3)c2n1 [Example 40, (S)-3-(3-Fluoro-phenyl)-5-[4-(6-methoxy-[1,5]naphthyridin-4-yl)-piperazin-1-ylmethyl]-oxazolidin-2-one] — 2-fold higher, 0.125 µg/mL (≈ 0.286 µM)
- COc1ccc2nccc(N3CC[C@H](NC[C@@H]4CN(c5ccc6c(c5)OCCO6)C(=O)O4)C3)c2n1 [Example 41, (R)-3-(2,3-Dihydro-benzo[1,4]dioxin-6-yl)-5-{[(S)-1-(6-methoxy-[1,5]naphthyridin-4-yl)-pyrrolidin-3-ylamino]-methyl}-oxazolidin-2-one] — lower, ≤ 0.031 µg/mL
- COc1ccc2nccc(N3CC[C@@H](NC[C@@H]4CN(c5ccc6c(c5)OCCO6)C(=O)O4)C3)c2n1 [Example 42, (R)-3-(2,3-Dihydro-benzo[1,4]dioxin-6-yl)-5-{[(R)-1-(6-methoxy-[1,5]naphthyridin-4-yl)-pyrrolidin-3-ylamino]-methyl}-oxazolidin-2-one] — lower, ≤ 0.031 µg/mL
- COc1ccc2ncc(F)c(N3CC(NC[C@@H]4CN(c5ccc6c(c5)NC(=O)CO6)C(=O)O4)C3)c2n1 [Example 45, 6-((R)-5-{[1-(3-Fluoro-6-methoxy-[1,5]naphthyridin-4-yl)-azetidin-3-ylamino]-methyl}-2-oxo-oxazolidin-3-yl)-4H-benzo[1,4]oxazin-3-one] — lower, ≤ 0.031 µg/mL
- COc1ccc2ncc(F)c(N3CC(NC[C@@H]4CN(c5ccc(C)c(F)c5)C(=O)O4)C3)c2n1 [Example 46, (R)-5-{[1-(3-Fluoro-6-methoxy-[1,5]naphthyridin-4-yl)-azetidin-3-ylamino]-methyl}-3-(3-fluoro-4-methyl-phenyl)-oxazolidin-2-one] — lower, ≤ 0.031 µg/mL
- COc1ccc2ncc(F)c(N3CC(NC[C@@H]4CN(c5ccc6c(c5)OCCO6)C(=O)O4)C3)c2n1 [Example 47, (R)-3-(2,3-Dihydro-benzo[1,4]dioxin-6-yl)-5-{[1-(3-fluoro-6-methoxy-[1,5]naphthyridin-4-yl)-azetidin-3-ylamino]-methyl}-oxazolidin-2-one] — lower, ≤ 0.031 µg/mL
- COc1ccc2ncc(F)c(N3CC(NC[C@@H]4CN(c5ccc6c(c5)NC(=O)CS6)C(=O)O4)C3)c2n1 [Example 48, 6-((R)-5-{[1-(3-Fluoro-6-methoxy-[1,5]naphthyridin-4-yl)-azetidin-3-ylamino]-methyl}-2-oxo-oxazolidin-3-yl)-4H-benzo[1,4]thiazin-3-one] — lower, ≤ 0.031 µg/mL
